Key:
[1] = test system: human DYRK1A and tau; assay: Inhibition of tau phosphorylation, ClariCELL Kinase Cell-Based Assay, HEK 293 cells expressing human DYRK1A and tau; settings: for inhibition at 1 µM: HEK293, read-out: % inhibition at 1 uM, tau phosphorylation, compound 1 uM; for inhibition at 0.25 µM / inhibition at 0.5 µM: HEK293, tau phosphorylation
In short: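 Cell-based service assay: HEK 293 cells transiently expressing human DYRK1A and tau were treated with compound and lysed. Released tau was plate-captured and its phosphorylation quantified by ELISA with a phospho-tau-specific antibody.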

[2] = biological target: LRRK2 (G2019S) (Homo sapiens, UniProt Q5S007, G2019S); assay: LRRK2 G2019S enzyme inhibition, ADP-Glo kinase assay; format: biochemical; set-up: purchased SignalChem L10-12GG; settings: ATP 25 μM
Sequence of LRRK2 (G2019S) (Q5S007 970-2527 G2019S limits assumed): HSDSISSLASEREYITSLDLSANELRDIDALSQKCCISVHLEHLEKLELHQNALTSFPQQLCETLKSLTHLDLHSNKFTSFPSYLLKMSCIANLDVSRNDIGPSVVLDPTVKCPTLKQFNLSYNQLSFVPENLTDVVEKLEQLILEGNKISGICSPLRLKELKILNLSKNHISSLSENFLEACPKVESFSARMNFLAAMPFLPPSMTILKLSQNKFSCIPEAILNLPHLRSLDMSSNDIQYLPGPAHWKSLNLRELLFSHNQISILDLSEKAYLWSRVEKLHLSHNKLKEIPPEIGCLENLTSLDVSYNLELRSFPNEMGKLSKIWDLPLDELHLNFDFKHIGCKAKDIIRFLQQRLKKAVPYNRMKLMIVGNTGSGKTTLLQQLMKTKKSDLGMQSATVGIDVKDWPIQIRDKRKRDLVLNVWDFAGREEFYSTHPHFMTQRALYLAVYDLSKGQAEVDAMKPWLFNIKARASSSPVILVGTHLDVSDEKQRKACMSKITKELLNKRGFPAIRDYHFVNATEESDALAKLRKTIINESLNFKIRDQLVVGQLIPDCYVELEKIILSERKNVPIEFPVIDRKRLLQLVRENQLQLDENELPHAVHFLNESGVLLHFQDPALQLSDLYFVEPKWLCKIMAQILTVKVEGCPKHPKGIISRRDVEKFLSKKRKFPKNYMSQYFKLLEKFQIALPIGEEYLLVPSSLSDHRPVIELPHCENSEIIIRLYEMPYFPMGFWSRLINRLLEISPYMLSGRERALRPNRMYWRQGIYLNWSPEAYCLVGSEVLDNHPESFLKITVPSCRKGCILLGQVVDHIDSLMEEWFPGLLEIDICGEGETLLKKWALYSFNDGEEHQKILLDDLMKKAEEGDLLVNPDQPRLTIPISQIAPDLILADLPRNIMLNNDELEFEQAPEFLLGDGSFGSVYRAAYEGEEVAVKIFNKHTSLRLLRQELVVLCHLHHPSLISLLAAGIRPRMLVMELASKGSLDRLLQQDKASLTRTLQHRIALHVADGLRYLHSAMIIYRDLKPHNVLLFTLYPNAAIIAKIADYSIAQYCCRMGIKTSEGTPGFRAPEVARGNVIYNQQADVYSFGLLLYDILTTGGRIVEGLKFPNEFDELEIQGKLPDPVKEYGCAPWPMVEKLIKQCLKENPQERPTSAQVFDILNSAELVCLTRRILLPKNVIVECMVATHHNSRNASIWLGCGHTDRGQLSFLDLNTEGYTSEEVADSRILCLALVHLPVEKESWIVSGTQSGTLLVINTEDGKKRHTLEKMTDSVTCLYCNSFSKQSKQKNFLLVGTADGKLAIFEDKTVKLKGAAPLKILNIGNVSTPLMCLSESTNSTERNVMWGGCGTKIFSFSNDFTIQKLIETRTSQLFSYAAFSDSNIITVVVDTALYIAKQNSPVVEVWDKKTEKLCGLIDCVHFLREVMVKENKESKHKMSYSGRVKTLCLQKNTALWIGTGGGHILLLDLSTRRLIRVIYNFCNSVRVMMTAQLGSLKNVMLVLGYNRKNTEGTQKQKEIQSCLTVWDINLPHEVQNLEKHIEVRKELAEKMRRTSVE
In short: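 IC50 derived from luminescent ADP-Glo readout against untreated solvent control, twelve final compound concentrations from 50 μM downward. Reaction: recombinant human LRRK2 G2019S enzyme, 25 μM ATP, substrate, pH 7.4 Tris buffer with MgCl2/BSA/DTT, 25° C. for 2 hours.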

[3] = test system: TNF-α; assay: Inhibition of LPS-induced TNF-α secretion of THP-1 monocytes (ELISA); format: cell-based, human; settings: compound 0.5 μM, LPS 500 ng/mL, 24 hours; for inhibition at 0.5 µM: Homo sapiens, THP-1, read-out: THP-1/TNF-α (% inhib)
Method: (§1) To evaluate an inhibitory effect on cytokine secretion of monocytes, THP-1 cells (ATCC, #TIB-202) as a human-derived monocyte line were cultured in an RPMI-1640 (Hyclone, SH30027.01) medium supplemented with 10% fetal bovine serum (Hyclone, SH30084.03), 1% penicillin streptomycin (Welgene, LS202-02), and 50 μM 2-mercaptoethanol (Gibco, #21985023). In the test, the cells were seeded in a 48-well plate (SPL, #30048) at a density of 1.5 to 2×10^5 cells/250 μL per well, and cultured at 37° C. for 16 hours in a 5% CO2 incubator. Thereafter, the compound was diluted with DMSO so that the final concentration of the compound was 0.5 μM. Then, the cells were treated with the diluted compound before an hour of treatment with lipopolysaccharides (LPS) (Sigma, #L6529). After the treatment with the compound, the cells were treated with LPS so that the final concentration was 500 ng/mL. Then, a cell culture broth was collected after 24 hours of culture, and levels of cytokine IL-6 (R&D Systems, #D6050) and TNF-α (R&D Systems, #DTA00D) comprised in the culture broth were measured using respective ELISA kits. After an experiment was performed according to the manufacturer's guidelines, cell analysis was performed by measuring the optical density at 450 nm using a microplate reader.

[4] = biological target: T1, human GST-DYRK1A (Homo sapiens, UniProt Q13627); assay: GST-DYRK1A enzyme inhibition, ADP-Glo kinase assay; format: biochemical; settings: ATP 10 μM, GST-DYRK1A full length, read-out: DYRK1 IC50
T1 construct: purified human GST-DYRK1A (full length, Thermo Scientifics) enzyme; purchased Thermo Scientifics
In short: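 Full-length enzyme (10 ng) was incubated with 10 μM ATP and a specific substrate for 1 h at 25 °C in 40 mM Tris-HCl pH 7.4, 20 mM MgCl2, 0.5 mg/mL BSA, 50 μM DTT. Luminescence was read against a solvent control, and IC50 values were derived from 3 data sets.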

[5] = test system: IL-6; assay: Inhibition of LPS-induced IL-6 secretion of THP-1 monocytes (ELISA); format: cell-based, human; settings: compound 0.5 μM, LPS 500 ng/mL, 24 hours; for inhibition at 0.5 µM: Homo sapiens, THP-1, read-out: THP1/IL6 (% inhib)
Method: as §1

[6] = biological target: T2, human GST-CLK1 (Homo sapiens, UniProt P49759); assay: GST-CLK1 enzyme inhibition, ADP-Glo kinase assay; format: biochemical; settings: ATP 10 μM, GST-CLK1 129-end
T2 construct: purified human GST-CLK1 (129-end, SignalChem) enzyme; purchased SignalChem
T2 sequence (P49759 129-484 limits assumed): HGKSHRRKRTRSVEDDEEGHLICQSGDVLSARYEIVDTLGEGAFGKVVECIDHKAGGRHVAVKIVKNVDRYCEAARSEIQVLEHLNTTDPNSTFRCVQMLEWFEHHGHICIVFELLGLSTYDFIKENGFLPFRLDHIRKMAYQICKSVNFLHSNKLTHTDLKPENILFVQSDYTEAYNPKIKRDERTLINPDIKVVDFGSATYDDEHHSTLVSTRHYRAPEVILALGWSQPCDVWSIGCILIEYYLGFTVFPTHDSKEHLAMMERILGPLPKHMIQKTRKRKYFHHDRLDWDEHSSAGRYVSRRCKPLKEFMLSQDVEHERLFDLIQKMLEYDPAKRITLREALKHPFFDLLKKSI
In short: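 ADP-Glo luminescence read-out, relative to untreated solvent control, gave IC50 (nM) from triplicate data sets. Reactions ran an hour at 25° C with 3 ng GST-CLK1 (residues 129-end), 10 μM ATP and specific substrate in Tris-HCl pH 7.4 buffer with MgCl2, BSA and DTT.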

[7] = biological target: DYRK1 (Homo sapiens, UniProt Q13627); assay: Kinase HotSpot service (Reaction Biology Corporation), DYRK1; format: biochemical; settings: ATP 10 uM, read-out: DYRK1 IC50 (values indicated by *)
Method: The inhibitory activities of the compounds were measured at a 3-fold concentration gradient starting from a maximum compound concentration of […], and the values measured using the Kinase HotSpot service (Reaction Biology Corporation) are indicated by an asterisk (*).
All the experimental methods were performed as provided by the Kinase HotSpot Customer Protocol (http://www.reactionbiology.com//Kinase_Assay_Protocol).

[8] = biological target: LRRK2 (Homo sapiens, UniProt Q5S007); assay: LRRK2 enzyme inhibition, ADP-Glo kinase assay; format: biochemical; set-up: purchased Invitrogen PR8604B; settings: ATP 10 μM
Sequence of LRRK2 (Q5S007 970-2527 limits assumed): as the sequence (Q5S007 970-2527 G2019S limits assumed) above, with S1050G counted along it
In short: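 ADP-Glo luminescent read-out of ADP formed by purified human LRRK2 enzyme (25 ng), 10 μM ATP, 0.2 μg substrate, 25° C for 2 h, Tris-HCl pH 7.4 buffer with MgCl2, BSA, DTT. Inhibition versus untreated solvent control over twelve final concentrations (50 μM downward) gives IC50.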

[9] = test system: MDA-MB-468 cell line; assay: Inhibition of proliferation of MDA-MB-468 cancer cells (Cell Titer-Glo); format: cell-based
In short: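 2,000 cells/well, DMEM or RPMI; 11-pt 3-fold dilution, final 10.000000–0.000169 μM; 72 h. CellTiter-Glo, 10 min RT, luminescence read; GI50 fitted.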

[10] = Homo sapiens, MDA-MB-468, 72 hours

Compound | inhibition at 1 µM [1] [%] | inhibition at 0.25 µM ([1]; compound 0.25 uM) [%] | inhibition at 0.5 µM ([1]; compound 0.5 uM) [%] | IC50 [4] [nM] | IC50 [6] [nM] | IC50 [7] [nM] | IC50 [8] [nM] | further results
O=C(c1ccc(Nc2nc(N[C@@H]3CCOC3)c3c(C(F)(F)F)c[nH]c3n2)c2c1OCCO2)N1CCN(C2COC2)CC1 [Example 416, (R)-(4-(oxetan-3-yl)piperazin-1-yl)(8-((4-((tetrahydrofuran-3-yl)amino)-5-(trifluoromethyl)-7H-pyrrolo[2,3-d]pyrimidin-2-yl)amino)-2,3-dihydrobenzo[b] [1,4]dioxin-5-yl)methanone] | 86.8 | 54.2 | 75.9 | < 100 | < 100 | – | – | IC50 [2]: < 100 nM; inhibition at 0.5 µM [3]: 8.1%; inhibition at 0.5 µM [5]: 45.6%
CCc1nc(Nc2ccc(C(=O)N3CCC(N4CCOCC4)CC3)c3c2OCCO3)nc2[nH]cc(C(F)(F)F)c12 [Example 395, (8-((4-ethyl-5-(trifluoromethyl)-7H-pyrrolo[2,3-d]pyrimidin-2-yl)amino)-2,3-dihydrobenzo [b][1,4]dioxin-5-yl)(4-morpholino-piperidin-1-yl)methanone] | – | – | – | – | 101 to 300 | < 100 | < 100 | –
N#Cc1c[nH]c2nc(Nc3ccc(C(=O)N4CCOCC4)c4c3OCCO4)nc(C3CC3)c12 [Example 220, 4-cyclopropyl-2-((8-(morpholine-4-carbonyl)-2,3-dihydrobenzo[b][1,4]dioxin-5-yl)amino)-7H-pyrrolo[2,3-d]pyrimidine-5-carbonitrile] | – | – | – | – | < 100 | < 100 | < 100 | GI50 [9, 10]: 101 to 300 nM
CCCNc1nc(Nc2ccc(C(=O)N3CCN(C4COC4)CC3)c3c2OCCO3)nc2[nH]cc(C(F)(F)F)c12 [Example 402, (4-(oxetan-3-yl)piperazin-1-yl)(8-((4-(propylamino)-5-(trifluromethyl)-7H-pyrrolo[2,3-d]pyrimidin-2-yl)amino)-2,3-dihydrobenzo[b] [1,4]dioxin-5-yl)methanone] | – | – | – | < 100 | < 100 | – | – | % inhibition at 0.25 uM ([1]; tau phosphorylation, compound 0.25 uM): 7.9%; % inhibition at 0.5 uM ([1]; tau phosphorylation, compound 0.5 uM): 26.5%; % inhibition at 1 uM ([1]; tau phosphorylation, compound 1 uM): 61.7%; IC50 [2]: < 100 nM; THP-1/TNF-α (% inhib) [3]: 1.4 % inhib; GI50 ([9]; 72 hours): 301 to 1000 nM; THP1/IL6 (% inhib) [5]: 18.2 % inhib
COc1cc(P2(=O)CCN(C3CC3)CC2)ccc1Nc1nc(C2CC2)c2c(C(F)(F)F)c[nH]c2n1 [Example 394, 1-cyclopropyl-4-(4-((4-cyclopropyl-5-(trifluoromethyl)-7H-pyrrolo[2,3-d]pyrimidin-2-yl)amino)-3-methoxyphenyl)-1,4-azaphosphinane4-oxide] | – | – | – | – | 301 to 1000 | < 100 | < 100 | GI50 [9, 10]: 301 to 1000 nM
O=C(c1ccc(Nc2nc(N[C@H]3CCOC3)c3c(C(F)(F)F)c[nH]c3n2)c2c1OCCO2)N1CCN(C2COC2)CC1 [Example 418, (S)-(4-(oxetan-3-yl)piperazin-1-yl)(8-((4-((tetra-hydrofuran-3-yl)amino)-5-(trifluoromethyl)-7H-pyrrolo[2,3-d]pyrimidin-2-yl)amino)-2,3-dihydrobenzo[b] [1,4]dioxin-5-yl)methanone] | 80.2 | 46.2 | 55.4 | < 100 | < 100 | – | – | IC50 [2]: < 100 nM; inhibition at 0.5 µM [3]: 8.5%; inhibition at 0.5 µM [5]: 35.5%
O=S(=O)(c1ccc(Nc2nc(C3CC3)c3c(C(F)(F)F)c[nH]c3n2)c2c1OCCO2)N1CCOCC1 [Example 470, 4-cyclopropyl-N-(8-(morpho-linosulfonyl)-2,3-dihydrobenzo [b][1,4]dioxin-5-yl)-5-(trifluoromethyl)-7H-pyrrolo[2,3-d]pyrimidin-2-amine] | 29.1 | 5.8 | 19.2 | – | 301 to 1000 | < 100 | – | –
COc1cc(P(C)(C)=O)ccc1Nc1nc(C2CC2)c2c(C(F)(F)F)c[nH]c2n1 [Example 229, (4-((4-cyclopropyl-5-(trifluoromethyl)-7H-pyrrolo[2,3-d]pyrimidin-2-yl)amino)-3-methoxyphenyl)dimethylphosphine oxide] | – | – | – | – | 101 to 300 | < 100 | – | –
O=C(c1ccc(Nc2nc(C3CC3)c3c(C(F)(F)F)c[nH]c3n2)c2c1CCO2)N1CC[C@@H](N2CCOCC2)C1 [Example 471, (R)-(7-((4-cyclopropyl-5-(trifluoromethyl)-7H-pyrrolo[2,3-d]pyrimidin-2-yl)amino)-2,3-dihydrobenzo-furan-4-yl)(3-morpholino-pyrrolidin-1-yl)methanone] | 42.8 | 3.9 | 29.6 | – | < 100 | < 100 | – | –
CNc1nc(Nc2ccc(C(=O)N3C[C@@H]4C[C@H]3CO4)c3c2OCCO3)nc2[nH]cc(C(F)(F)F)c12 [Example 408, ((1S,4S)-2-oxa-5-azabicyclo[2.2.1]heptan-5-yl)(8-((4-(methylamino)-5-(trifluoromethyl)-7H-pyrrolo[2,3-d]pyrimidin-2-yl)amino)-2,3-dihydrobenzo[b] [1,4]dioxin-5-yl)methanone] | 48.5 | 20.6 | 40.3 | < 100 | < 100 | – | < 100 | inhibition at 0.5 µM [3]: 4.3%; inhibition at 0.5 µM [5]: 19.5%
CCc1nc(Nc2ccc(P3(=O)CCN(C4CC4)CC3)cc2OC)nc2[nH]cc(C(F)(F)F)c12 [Example 396, 1-cyclopropyl-4-(4-((4-ethyl-5-(trifluoromethyl)-7H-pyrrolo[2,3-d]pyrimidin-2-yl)amino)-3-methoxyphenyl)-1,4-azaphosphinane-4-oxide] | – | – | – | – | 301 to 1000 | < 100 | 101 to 300 | –

Source: patent US20230066011A1, “PYRROLOPYRIMIDINE DERIVATIVE, AND PHARMACEUTICAL COMPOSITION FOR PREVENTING OR TREATING PROTEIN KINASE-RELATED DISEASE COMPRISING SAME AS ACTIVE INGREDIENT” (VORONOI CO., LTD., priority 2019, published 2023)
